# In patent US12390423B2 (priority 2019, dated 2025):
# Columns and labels:
# [1] = Complete blood count and plasma FFA/TAG in DIO mice; format: in vivo
# Method: Complete blood count with differential (CBC w/diff) analysis was done on 500 μL of whole blood by the animal health laboratory at the University of Guelph. Plasma insulin, FFAs, and triacylglycerols (TAGs) were measured using a rat/mouse insulin ELISA kit (Millipore, Rat/Mouse Insulin Detection kit), FFA fluorometric assay kit (Cayman, MI, USA), and the TAG colorimetric assay kit (Cayman, MI, USA), respectively. Manufacturer's protocols were followed for all kits.
# [2] = tested on: insulin signaling (pAkt-Ser473), MAPK, AMPK; assay: Immunoblotting (pAkt, pERK1/2, pP38, pAMPKα, PGC-1α) and NAO mitochondrial mass in C2C12 myotubes; format: cell-based, mouse
# Method: For all ROS studies, INS-1 (832/13) cells and C2C12 myotubes were treated with or without palmitate and FAO inhibitors for 24 h in low glucose cell culture media as described for the FAO assay. After treatment, cells were trypsinized and re-suspended in PBS containing 5 μM of the fluorescent dye MitoSOX® (Molecular Probes, Invitrogen) and allowed to incubate for 5-15 minutes in a humidified atmosphere containing 5% CO2 at 37° C. Cells were then washed in PBS, placed in a 96 well plate and fluorescence was measured by flow cytometry. ROS was quantified by normalizing the mean fluorescence values of live gated cells to vehicle control. Mitochondrial membrane potential (MMP) in INS-1 (832/13) and C2C12 myotubes was measured using the cationic fluorescent dye JC-1 (Molecular Probes). JC-1 accumulates in the mitochondrial matrix in an MMP dependent manner. JC-1 fluoresces green in the cytosol where it exists as a monomer, after entering the mitochondria JC-1 monomers form J aggregates and fluoresce red, thus the red/green fluorescence ratio is used to determine MMP. After all treatments, cells were washed, trypsinized and re-suspended in PBS containing 1 μM JC-1 and allowed to incubate for 5-10 minutes in a humidified atmosphere containing 5% CO2 at 37° C. Cells were then washed in PBS, placed in a 96 well plate and fluorescence was measured by flow cytometry. MMP was quantified by normalizing the mean fluorescence values of live gated cells to vehicle control. Mitochondrial mass was measured using 10-N-nonyl acridine orange (NAO; Enzo Life Sciences, ENZ-52306), which accumulates in the mitochondria in an MMP-independent manner where it binds to cardiolipin in the inner mitochondrial membrane. Cells were treated, washed and collected as described and incubated with 0.35 μM NAO and green fluorescence was measured using flow cytometry. In all analysis (ROS, MMP and mitochondrial mass), forward vs side scatter plots were gated to exclude debris (e.g., dead cells), as cell death is associated with increased ROS and altered membrane potentials. For all cell culture experiments, after drug treatments cells were washed with chilled phosphate-buffered saline (PBS), and lysed in chilled lysis buffer with 1× protease inhibitor cocktail (Sigma). RIPA lysis buffer (Sigma-Aldrich) was used for INS-1 (832/13) cells and muscle lysis buffer for C2C12 myotubes (20 mM HEPES, 10 mM NaCl, 1.5 mM MgCl2, 1 mM DTT, 20% glycerol, and 0.1% Triton-X100). Cells were scraped, mechanically homogenized using a syringe and centrifuged at 14,000×g for 20 min at 4° C. and the supernatants were collected. For preparation of all gastrocnemius muscle lysates, 10 mg frozen tissue (wet weight) was washed in chilled PBS, placed in a dounce homogenizer, lysed in muscle lysis buffer and centrifuged at 14,000×g for 20 min at 4° C. and the supernatant was collected. Protein content for cell and tissue lysates was measured using the BCA protein assay kit (ThermoFisher) according to manufacturer's protocol. Thirty μg protein lysates were prepared in loading buffer and immunoblotting was performed by heating lysates for 5 minutes at 95° C. and subjecting them to gel electrophoresis on 10% SDS-polyacrylamide gels at 150 V for 75 minutes. Using a semi-dry transfer apparatus (Bio-Rad) the gels were then transferred at 25V for 45 minutes to a PVDF membrane and blocked with 5% BSA (Sigma) in tris-buffered saline-tween (TBS-T) for 1 hour. […]
# [3] = ad libitum HFD mice, AvoB 100 mg/kg b.w. twice weekly, vs control-HFD, endpoint
substance,measurement,setting,value
avocatin B [AvoB],Blood markers of toxicity (CBC w/diff),"[1]; HFD mice, AvoB 100 mg/kg b.w. twice weekly for 5 weeks, study endpoint",no effect on blood markers of toxicity
same,Plasma free fatty acids (FFA),[1]; [3],increased plasma levels of FFA
same,Plasma triacylglycerols (TAG),[1]; [3],increased
same,Palmitate induced phosphorylation of MAPK ERK1/2 and P38,"[2]; 25 μM AvoB, 0.5 mM palmitate, 24 h",reduce palmitate induced phosphorylation
same,AMPK activation (pAMPKα-Thr172),"[2]; 25 μM AvoB, 24 h",independent of AMPK activation
same,"Mitochondrial biogenesis (PGC-1α protein, NAO dye)","[2]; 25 μM AvoB, 24 h",independent
same,Insulin signaling (insulin stimulated phosphorylation of AKT Ser473),"[2]; 0.5 mM palmitate 24 h, 100 nM insulin 30 min, AvoB 25 μM, DCA 1 mM, TRI 25 μM",restore the suppressive effects of lipotoxicity on insulin stimulated phosphorylation of AKT^Ser473
